#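 Values below derive from 48-hour exposures of cells grown in 96-well plates, with endpoints linearly interpolated between the two concentrations bracketing the appropriate inhibition level. At the TGI there is no net growth.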
# Legend:
# Assay in all cases: NCI tumour cell line growth inhibition, 48 h
# DMS 273 small cell lung = test system: DMS 273 small cell lung
# SF-539 CNS = test system: SF-539 CNS
# K-562 leukemia = test system: K-562 leukemia
# TK-10 renal = test system: TK-10 renal
# KM12 colon = test system: KM12 colon
# SW-620 colon = test system: SW-620 colon
# EKVX NSCLC = test system: EKVX NSCLC
# UACC-257 melanoma = test system: UACC-257 melanoma
# SN12C renal = test system: SN12C renal
# CCRF-CEM leukemia = test system: CCRF-CEM leukemia
# SNB-78 CNS = test system: SNB-78 CNS
# HCC-2998 colon = test system: HCC-2998 colon
# COLO 205 colon = test system: COLO 205 colon
# XF 498 CNS = test system: XF 498 CNS
# SK-OV-3 ovarian = test system: SK-OV-3 ovarian
# OVCAR-5 ovarian = test system: OVCAR-5 ovarian
# CAKI-1 renal = test system: CAKI-1 renal
# KM20L2 colon = test system: KM20L2 colon
# IGROV1 ovarian = test system: IGROV1 ovarian
# OVCAR-8 ovarian = test system: OVCAR-8 ovarian
# UO-31 renal = test system: UO-31 renal
# NCI-H23 lung = test system: NCI-H23 lung
# M14 melanoma = test system: M14 melanoma
# DMS 114 small cell lung = test system: DMS 114 small cell lung
# SK-MEL-28 melanoma = test system: SK-MEL-28 melanoma
# HCT-15 colon = test system: HCT-15 colon
# U251 CNS = test system: U251 CNS
# SF-295 CNS = test system: SF-295 CNS
# 786-0 renal = test system: 786-0 renal
# OVCAR-4 ovarian = test system: OVCAR-4 ovarian
# MOLT-4 leukemia = test system: MOLT-4 leukemia
# OVCAR-3 ovarian = test system: OVCAR-3 ovarian
# UACC-62 melanoma = test system: UACC-62 melanoma
# MALME-3M melanoma = test system: MALME-3M melanoma
# HT29 colon = test system: HT29 colon
# DLD-1 colon = test system: DLD-1 colon
# LOX IMVI melanoma = test system: LOX IMVI melanoma
# A549 NSCLC = test system: A549 NSCLC
# M19-MEL melanoma = test system: M19-MEL melanoma
# HOP-62 NSCLC = test system: HOP-62 NSCLC
# SF-268 CNS = test system: SF-268 CNS
# A498 renal = test system: A498 renal
# LXFL 529 NSCLC = test system: LXFL 529 NSCLC
# SNB-75 CNS = test system: SNB-75 CNS
# RPMI-8226 leukemia = test system: RPMI-8226 leukemia
# SK-MEL-2 melanoma = test system: SK-MEL-2 melanoma
# SK-MEL-5 melanoma = test system: SK-MEL-5 melanoma
# SNB-19 CNS = test system: SNB-19 CNS
# NCI-H460 lung = test system: NCI-H460 lung
# ACHN renal = test system: ACHN renal
# HCT-116 colon = test system: HCT-116 colon
# SR leukemia = test system: SR leukemia
# HL-60(TB) leukemia = test system: HL-60(TB) leukemia
# NCI-H226 lung = test system: NCI-H226 lung
# NCI-H522 lung = test system: NCI-H522 lung
smiles,measurement,setting,value
CCc1cccc(C(C)CC)c1NC(=O)CC1C(=O)Nc2ccccc2S1(=O)=O (stereo not given),TGI,DMS 273 small cell lung,71.3 µM
same,TGI,SF-539 CNS,52.1 µM
same,TGI,K-562 leukemia,28.5 µM
same,TGI,TK-10 renal,84.5 µM
same,TGI,KM12 colon,40.5 µM
same,TGI,SW-620 colon,28.7 µM
same,TGI,EKVX NSCLC,44.3 µM
same,TGI,UACC-257 melanoma,> 100 µM
same,TGI,SN12C renal,> 100 µM
same,TGI,CCRF-CEM leukemia,30.5 µM
same,TGI,SNB-78 CNS,65.5 µM
same,TGI,HCC-2998 colon,22.1 µM
same,TGI,COLO 205 colon,44.5 µM
same,TGI,XF 498 CNS,> 100 µM
same,TGI,SK-OV-3 ovarian,99.2 µM
same,TGI,OVCAR-5 ovarian,> 100 µM
same,TGI,CAKI-1 renal,40.2 µM
same,TGI,KM20L2 colon,> 100 µM
same,TGI,IGROV1 ovarian,> 100 µM
same,TGI,OVCAR-8 ovarian,15.9 µM
same,TGI,UO-31 renal,96.2 µM
same,TGI,NCI-H23 lung,40.1 µM
same,TGI,M14 melanoma,> 100 µM
same,TGI,DMS 114 small cell lung,39.2 µM
same,TGI,SK-MEL-28 melanoma,> 100 µM
same,TGI,HCT-15 colon,48.7 µM
same,TGI,U251 CNS,> 100 µM
same,TGI,SF-295 CNS,> 100 µM
same,TGI,786-0 renal,33.6 µM
same,TGI,OVCAR-4 ovarian,39.9 µM
same,TGI,MOLT-4 leukemia,41.5 µM
same,TGI,OVCAR-3 ovarian,38.2 µM
same,TGI,UACC-62 melanoma,> 100 µM
same,TGI,MALME-3M melanoma,> 100 µM
same,TGI,HT29 colon,47.9 µM
same,TGI,DLD-1 colon,33.2 µM
same,TGI,LOX IMVI melanoma,39.9 µM
same,TGI,A549 NSCLC,70 µM
same,TGI,M19-MEL melanoma,> 100 µM
same,TGI,HOP-62 NSCLC,> 100 µM
same,TGI,SF-268 CNS,> 100 µM
same,TGI,A498 renal,72.6 µM
same,TGI,LXFL 529 NSCLC,24.5 µM
same,TGI,SNB-75 CNS,94.6 µM
same,TGI,RPMI-8226 leukemia,43.3 µM
same,TGI,SK-MEL-2 melanoma,> 100 µM
same,TGI,SK-MEL-5 melanoma,> 100 µM
same,TGI,SNB-19 CNS,> 100 µM
same,TGI,NCI-H460 lung,> 100 µM
same,TGI,ACHN renal,> 100 µM
N#CNC1=NC(Cc2ccccc2)C(=O)N1CCc1c[nH]c2ccccc12 (stereo not given),TGI,DMS 273 small cell lung,> 100 µM
same,TGI,SF-539 CNS,83.2 µM
same,TGI,K-562 leukemia,> 100 µM
same,TGI,TK-10 renal,89.9 µM
same,TGI,KM12 colon,> 100 µM
same,TGI,SW-620 colon,> 100 µM
same,TGI,EKVX NSCLC,81.5 µM
same,TGI,UACC-257 melanoma,> 100 µM
same,TGI,SN12C renal,> 100 µM
same,TGI,CCRF-CEM leukemia,74.6 µM
same,TGI,SNB-78 CNS,63 µM
same,TGI,HCC-2998 colon,48.6 µM
same,TGI,COLO 205 colon,43.6 µM
same,TGI,HCT-116 colon,50.4 µM
same,TGI,XF 498 CNS,68.4 µM
same,TGI,SR leukemia,> 100 µM
same,TGI,SK-OV-3 ovarian,80.2 µM
same,TGI,IGROV1 ovarian,> 100 µM
same,TGI,OVCAR-8 ovarian,> 100 µM
same,TGI,UO-31 renal,64.5 µM
same,TGI,NCI-H23 lung,> 100 µM
same,TGI,HL-60(TB) leukemia,60.5 µM
same,TGI,M14 melanoma,> 100 µM
same,TGI,DMS 114 small cell lung,91.9 µM
same,TGI,SK-MEL-28 melanoma,67.8 µM
same,TGI,HCT-15 colon,> 100 µM
same,TGI,SF-295 CNS,> 100 µM
same,TGI,786-0 renal,42.1 µM
same,TGI,OVCAR-4 ovarian,> 100 µM
same,TGI,MOLT-4 leukemia,58.3 µM
same,TGI,OVCAR-3 ovarian,> 100 µM
same,TGI,UACC-62 melanoma,86 µM
same,TGI,HT29 colon,> 100 µM
same,TGI,DLD-1 colon,> 100 µM
same,TGI,LOX IMVI melanoma,> 100 µM
same,TGI,A549 NSCLC,> 100 µM
same,TGI,M19-MEL melanoma,92.4 µM
same,TGI,HOP-62 NSCLC,92.1 µM
same,TGI,SF-268 CNS,83.5 µM
same,TGI,LXFL 529 NSCLC,> 100 µM
same,TGI,SNB-75 CNS,33.2 µM
same,TGI,RPMI-8226 leukemia,> 100 µM
same,TGI,SK-MEL-5 melanoma,41.7 µM
same,TGI,SNB-19 CNS,> 100 µM
same,TGI,NCI-H226 lung,> 100 µM
COc1ccc(Cc2nccc3cc(OC)c(OC)cc23)cc1,TGI,SF-539 CNS,> 100 µM
same,TGI,K-562 leukemia,> 100 µM
same,TGI,TK-10 renal,> 100 µM
same,TGI,KM12 colon,> 100 µM
same,TGI,SW-620 colon,> 100 µM
same,TGI,EKVX NSCLC,> 100 µM
same,TGI,UACC-257 melanoma,62.2 µM
same,TGI,SN12C renal,> 100 µM
same,TGI,CCRF-CEM leukemia,> 100 µM
same,TGI,SNB-78 CNS,> 100 µM
same,TGI,HCC-2998 colon,> 100 µM
same,TGI,COLO 205 colon,> 100 µM
same,TGI,HCT-116 colon,> 100 µM
same,TGI,XF 498 CNS,83.6 µM
same,TGI,SK-OV-3 ovarian,> 100 µM
same,TGI,OVCAR-5 ovarian,> 100 µM
same,TGI,CAKI-1 renal,> 100 µM
same,TGI,KM20L2 colon,> 100 µM
same,TGI,IGROV1 ovarian,> 100 µM
same,TGI,OVCAR-8 ovarian,> 100 µM
same,TGI,NCI-H522 lung,> 100 µM
same,TGI,UO-31 renal,90.8 µM
same,TGI,NCI-H23 lung,> 100 µM
same,TGI,M14 melanoma,> 100 µM
same,TGI,DMS 114 small cell lung,> 100 µM
same,TGI,SK-MEL-28 melanoma,> 100 µM
same,TGI,HCT-15 colon,> 100 µM
same,TGI,U251 CNS,> 100 µM
same,TGI,SF-295 CNS,> 100 µM
same,TGI,786-0 renal,> 100 µM
same,TGI,OVCAR-4 ovarian,> 100 µM
same,TGI,MOLT-4 leukemia,> 100 µM
same,TGI,OVCAR-3 ovarian,> 100 µM
same,TGI,UACC-62 melanoma,> 100 µM
same,TGI,MALME-3M melanoma,> 100 µM
same,TGI,HT29 colon,> 100 µM
same,TGI,DLD-1 colon,> 100 µM
same,TGI,A549 NSCLC,> 100 µM
same,TGI,M19-MEL melanoma,> 100 µM
same,TGI,HOP-62 NSCLC,> 100 µM
same,TGI,SF-268 CNS,> 100 µM
same,TGI,A498 renal,> 100 µM
same,TGI,LXFL 529 NSCLC,> 100 µM
same,TGI,SNB-75 CNS,> 100 µM
same,TGI,RPMI-8226 leukemia,> 100 µM
same,TGI,SK-MEL-2 melanoma,> 100 µM
same,TGI,SK-MEL-5 melanoma,> 100 µM
same,TGI,SNB-19 CNS,> 100 µM
same,TGI,NCI-H460 lung,> 100 µM
same,TGI,ACHN renal,> 100 µM

# From PubChem BioAssay (NCI)
